The values that follow come from ChEMBL document CHEMBL1136456, “Synthesis and biological evaluation of benzazepine oxazolidinone antibacterials” (2003).

Common to all, as to type: functional
Assay [1] concerns Staphylococcus epidermidis. The assay is described as follows: Antibacterial activity against Methicillin-resistant Staphylococcus epidermidis UC12084 (S. e).
Assay [2] has as its system Streptococcus pneumoniae. In words: Antibacterial activity against Streptococcus pneumoniae UC9912 (S.p).
For assay [3], the system named is Staphylococcus aureus. The assay is described as follows: Antibacterial activity against Methicillin-suceptible Staphylococcus aureus UC9218.
Assay [4] relates to Haemophilus influenzae. The assay is described as follows: Antibacterial activity against Haemophilus influenzae UC30063 (Haemophilus influenzae).
In assay [5] the test system is Enterococcus faecalis. In words: Antibacterial activity against Enterococcus faecalis UC9217 (E. f).
In assay [6] the test system is Moraxella catarrhalis. In words: Antibacterial activity against Moraxella catarrhalis UC30610 (M. cat).
Assay [7] relates to Staphylococcus aureus. The assay is described as follows: Antibacterial activity against Methicillin-resistant Staphylococcus aureus UC6685 (S. a.).
For assay [8], the system named is Mus musculus. In words: Dose (administered orally) required to protect the Staphylococcus aureus infected mice was determined. The conditions noted are these: po.

In brackets after ≈: the same amount, converted by molar mass. Bounds are passed on as bounds.

Take `CC(=O)NC[C@H]1CN(c2ccc3c(c2)CCCN(C(=O)Nc2ccccc2)C3)C(=O)O1`: the MIC is 4 µg/mL (≈ 9.47 µM) in assay [1]; 1 µg/mL (≈ 2.37 µM) in assay [2]; 16 µg/mL (≈ 37.9 µM) in assay [3]; 64 µg/mL (≈ 151 µM) in assay [4]; 4 µg/mL (≈ 9.47 µM) in assay [5].
For `CC(=O)NC[C@H]1CN(c2ccc3c(c2)CCN(C(C)=O)CC3)C(=O)O1`, the MIC was 1 µg/mL (≈ 2.9 µM) in assay [1]; 1 µg/mL (≈ 2.9 µM) in assay [2]; 4 µg/mL (≈ 11.6 µM) in assay [3]; 64 µg/mL (≈ 185 µM) in assay [4]; 2 µg/mL (≈ 5.79 µM) in assay [5].
For the compound `CC(=O)NC[C@H]1CN(c2ccc3c(c2)CCN(S(C)(=O)=O)CC3)C(=O)O1`, the MIC in assay [6] is > 64 µg/mL; in assay [1] it was 16 µg/mL (≈ 41.9 µM); in assay [2], 8 µg/mL (≈ 21 µM); in assay [3], 16 µg/mL (≈ 41.9 µM); in assay [4], 32 µg/mL (≈ 83.9 µM); in assay [5] it was 32 µg/mL (≈ 83.9 µM).
On to `CC(=O)NC[C@H]1CN(c2ccc3c(c2)CCN(C(=O)CO)CC3)C(=O)O1`, for which the MIC was 8 µg/mL (≈ 22.1 µM) in assay [6]; 2 µg/mL (≈ 5.53 µM) in assay [7]; 1 µg/mL (≈ 2.77 µM) in assay [1]; < 0.05 µg/mL in assay [2]; 2 µg/mL (≈ 5.53 µM) in assay [3]; 32 µg/mL (≈ 88.5 µM) in assay [4]. In addition, in assay [5], the MIC was 4 µg/mL (≈ 11.1 µM). This compound displayed an ED50 in assay [8] of 8.5 mg/kg/day.
Consider `CC(=O)NC[C@H]1CN(c2ccc3c(c2)CCN(C(=O)Oc2ccccc2)CC3)C(=O)O1`, for which the MIC was 2 µg/mL (≈ 4.72 µM) in assay [1]; 2 µg/mL (≈ 4.72 µM) in assay [2]; 4 µg/mL (≈ 9.45 µM) in assay [3]; > 64 µg/mL in assay [4]; 4 µg/mL (≈ 9.45 µM) in assay [5].
For the compound `CC(=O)NC[C@H]1CN(c2ccc3c(c2)CCCN(C(=O)Cc2ccccc2)C3)C(=O)O1`, the MIC in assay [1] is 8 µg/mL (≈ 19 µM); in assay [2] it was 4 µg/mL (≈ 9.49 µM); in assay [3], 32 µg/mL (≈ 75.9 µM); in assay [4], > 64 µg/mL; in assay [5] it was 16 µg/mL (≈ 38 µM).
As to `CC(=O)NC[C@H]1CN(c2ccc3c(c2)CCCCN3C(=O)CO)C(=O)O1`, the MIC was > 64 µg/mL in assay [6]; 32 µg/mL (≈ 88.5 µM) in assay [7]; 8 µg/mL (≈ 22.1 µM) in assay [1]; 8 µg/mL (≈ 22.1 µM) in assay [2]; 64 µg/mL (≈ 177 µM) in assay [3]; > 64 µg/mL in assay [4]. This compound also yielded an MIC in assay [5] of 64 µg/mL (≈ 177 µM).
Turning to `COC(=O)N1CCc2ccc(N3C[C@H](CNC(C)=O)OC3=O)cc2CC1`, the MIC is 1 µg/mL (≈ 2.77 µM) in assay [1]; 1 µg/mL (≈ 2.77 µM) in assay [2]; 4 µg/mL (≈ 11.1 µM) in assay [3]; > 64 µg/mL in assay [4]; 2 µg/mL (≈ 5.53 µM) in assay [5].
As to `CC(=O)NC[C@H]1CN(c2ccc3c(c2)CCCN(C(=O)CO)C3)C(=O)O1`, the MIC amounted to 16 µg/mL (≈ 44.3 µM) in assay [6]; 4 µg/mL (≈ 11.1 µM) in assay [7]; 1 µg/mL (≈ 2.77 µM) in assay [1]; 1 µg/mL (≈ 2.77 µM) in assay [2]; 4 µg/mL (≈ 11.1 µM) in assay [3]; 64 µg/mL (≈ 177 µM) in assay [4]. The MIC in assay [5] turned out to be 4 µg/mL (≈ 11.1 µM).
Take `CC(=O)NC[C@H]1CN(c2ccc3c(c2)CCN(C(=O)Cc2ccccc2)CC3)C(=O)O1`: the MIC in assay [1] was 1 µg/mL (≈ 2.37 µM); in assay [2], 1 µg/mL (≈ 2.37 µM); in assay [3], 4 µg/mL (≈ 9.49 µM); in assay [4] it was > 64 µg/mL; in assay [5], 2 µg/mL (≈ 4.74 µM).
As to `CC(=O)NC[C@H]1CN(c2ccc3c(c2)CCN(C(=O)c2ccccc2)CC3)C(=O)O1`, the MIC in assay [1] was 1 µg/mL (≈ 2.45 µM); in assay [2], 1 µg/mL (≈ 2.45 µM); in assay [3], 8 µg/mL (≈ 19.6 µM); in assay [4] it was > 64 µg/mL; in assay [5], 2 µg/mL (≈ 4.91 µM).
`CC(=O)NC[C@H]1CN(c2ccc3c(c2)CCCCN3C=O)C(=O)O1`: the MIC in assay [6] is 4 µg/mL (≈ 12.1 µM); in assay [7], 2 µg/mL (≈ 6.04 µM); in assay [1], < 0.05 µg/mL; in assay [2], < 0.05 µg/mL; in assay [3], 2 µg/mL (≈ 6.04 µM); in assay [4] it was 16 µg/mL (≈ 48.3 µM). In assay [5], this compound came in with an MIC of 2 µg/mL (≈ 6.04 µM).
Regarding `CC(=O)NC[C@H]1CN(c2ccc3c(c2)CCN(C(=O)OCc2ccccc2)CC3)C(=O)O1`, the MIC is 16 µg/mL (≈ 36.6 µM) in assay [6]; 2 µg/mL (≈ 4.57 µM) in assay [7]; 1 µg/mL (≈ 2.29 µM) in assay [1]; < 0.05 µg/mL in assay [2]; 4 µg/mL (≈ 9.14 µM) in assay [3]; > 64 µg/mL in assay [4]. In assay [5], this compound showed an MIC of 4 µg/mL (≈ 9.14 µM).
As for `CC(=O)NC[C@H]1CN(c2ccc(N3CCOCC3)c(F)c2)C(=O)O1` [LINEZOLID], the results for the MIC in assay [6], in assay [1] and in assay [4] were 8 µg/mL (≈ 23.7 µM), 1 µg/mL (≈ 2.96 µM) and 16 µg/mL (≈ 47.4 µM), respectively. Besides, the ED50 in assay [8] worked out at 5.6 mg/kg/day.
For the compound `CC(=O)NC[C@H]1CN(c2ccc3c(c2)CCCN(C(C)=O)C3)C(=O)O1`, the MIC in assay [1] is 4 µg/mL (≈ 11.6 µM); in assay [2] it was 2 µg/mL (≈ 5.79 µM); in assay [3], 8 µg/mL (≈ 23.2 µM); in assay [4], > 64 µg/mL; in assay [5], 8 µg/mL (≈ 23.2 µM).
Consider `CC(=O)NC[C@H]1CN(c2ccc3c(c2)CCCCN3C(=O)OCc2ccccc2)C(=O)O1`, for which the MIC in assay [6], in assay [1], in assay [2], in assay [3], in assay [4] and in assay [5] was > 64 µg/mL each time.
As for `CC(=O)NC[C@H]1CN(c2ccc3c(c2)N(C=O)CCCC3)C(=O)O1`, the MIC in assay [6], in assay [1], in assay [2], in assay [3], in assay [4] and in assay [5] was > 64 µg/mL each time.
In the case of `CC(=O)NC[C@H]1CN(c2ccc3c(c2)CCCCN3)C(=O)O1`, the MIC is > 64 µg/mL in assay [6]; 32 µg/mL (≈ 105 µM) in assay [7]; 16 µg/mL (≈ 52.7 µM) in assay [1]; 16 µg/mL (≈ 52.7 µM) in assay [2]; 64 µg/mL (≈ 211 µM) in assay [3]; > 64 µg/mL in assay [4]. The MIC in assay [5] was 64 µg/mL (≈ 211 µM).
With `CC(=O)NC[C@H]1CN(c2ccc3c(c2)NCCCC3)C(=O)O1`, the MIC in assay [6] is > 64 µg/mL; in assay [7], 16 µg/mL (≈ 52.7 µM); in assay [1], 8 µg/mL (≈ 26.4 µM); in assay [2] it was 8 µg/mL (≈ 26.4 µM); in assay [3] it was 32 µg/mL (≈ 105 µM); in assay [4], > 64 µg/mL. In assay [5], this compound yielded an MIC of 32 µg/mL (≈ 105 µM).
Consider `CC(=O)NC[C@H]1CN(c2ccc3c(c2)CCCN(C(=O)OCc2ccccc2)C3)C(=O)O1`, for which the MIC in assay [1] is 16 µg/mL (≈ 36.6 µM); in assay [2], 8 µg/mL (≈ 18.3 µM); in assay [3], 16 µg/mL (≈ 36.6 µM); in assay [4] it was > 64 µg/mL; in assay [5], 32 µg/mL (≈ 73.1 µM).
Regarding `CC(=O)NC[C@H]1CN(c2ccc3c(c2)CCCNC3)C(=O)O1`, the MIC in assay [6] is > 64 µg/mL; in assay [1], 32 µg/mL (≈ 105 µM); in assay [2] it was 8 µg/mL (≈ 26.4 µM); in assay [3], > 64 µg/mL; in assay [4], > 64 µg/mL; in assay [5] it was > 64 µg/mL.
In the case of `CC(=O)NC[C@H]1CN(c2ccc3c(c2)CCCN(C(=O)NC(C)C)C3)C(=O)O1`, the MIC was 32 µg/mL (≈ 82.4 µM) in assay [1]; 8 µg/mL (≈ 20.6 µM) in assay [2]; 64 µg/mL (≈ 165 µM) in assay [3]; > 64 µg/mL in assay [4]; 32 µg/mL (≈ 82.4 µM) in assay [5].
For `CC(=O)NC[C@H]1CN(c2ccc3c(c2)CCN(C=O)CC3)C(=O)O1`, the MIC in assay [6] is 8 µg/mL (≈ 24.1 µM); in assay [7] it was 2 µg/mL (≈ 6.04 µM); in assay [1] it was < 0.05 µg/mL; in assay [2], < 0.05 µg/mL; in assay [3], 4 µg/mL (≈ 12.1 µM); in assay [4], > 64 µg/mL. The same compound gave an MIC in assay [5] of 4 µg/mL (≈ 12.1 µM).
Turning to `COC(=O)N1CCCc2cc(N3C[C@H](CNC(C)=O)OC3=O)ccc2C1`, the MIC in assay [1] is 2 µg/mL (≈ 5.53 µM); in assay [2] it was 2 µg/mL (≈ 5.53 µM); in assay [3], 8 µg/mL (≈ 22.1 µM); in assay [4], > 64 µg/mL; in assay [5], 4 µg/mL (≈ 11.1 µM).
Take `CC(=O)NC[C@H]1CN(c2ccc3c(c2)CCNCC3)C(=O)O1`: the MIC in assay [6] is > 64 µg/mL; in assay [7] it was 64 µg/mL (≈ 211 µM); in assay [1] it was 8 µg/mL (≈ 26.4 µM); in assay [2], 8 µg/mL (≈ 26.4 µM); in assay [3] it was 32 µg/mL (≈ 105 µM); in assay [4] it was > 64 µg/mL. Besides, the MIC in assay [5] was 32 µg/mL (≈ 105 µM).
As to `CC(=O)NC[C@H]1CN(c2ccc3c(c2)CCCN(C=O)C3)C(=O)O1`, the MIC in assay [6] amounted to 4 µg/mL (≈ 12.1 µM); in assay [7], 1 µg/mL (≈ 3.02 µM); in assay [1], 2 µg/mL (≈ 6.04 µM); in assay [2], 1 µg/mL (≈ 3.02 µM); in assay [3], 1 µg/mL (≈ 3.02 µM); in assay [4], 32 µg/mL (≈ 96.6 µM). In assay [5], this compound came in with an MIC of 2 µg/mL (≈ 6.04 µM). The compound also came in with a 50% effective dose (ED50) in assay [8] of 8.1 mg/kg/day.
In the case of `CC(=O)NC[C@H]1CN(c2ccc3c(c2)CCCN(C(=O)NCCc2ccccc2)C3)C(=O)O1`, the MIC in assay [1] was 32 µg/mL (≈ 71 µM); in assay [2], 8 µg/mL (≈ 17.8 µM); in assay [3] it was 64 µg/mL (≈ 142 µM); in assay [4] it was > 64 µg/mL; in assay [5] it was 32 µg/mL (≈ 71 µM).
